Measurements as given in US11613533B2, “Compounds useful for inhibiting RET kinase” (Eli Lilly and Company, priority 2020, dated 2023).

Columns and labels:
[1] = molecular target: T1, KIF5B-RET mutant form G810S in HEK293 cells (Homo sapiens, UniProt P07949, G810S); experiment: RET cell assay (In-Cell Western, phospho-RET Y1062), G810S; assay type: cell-based; settings: HEK293, doxycycline-induced KIF5B-RET G810S, 1 hr compound treatment; read-out: EC50, inhibition of intracellular autophosphorylation of RET at tyrosine 1062, G810S cells
T1 construct: expressed in transfected cells; host or cells: HEK293; the other entry of the earlier key: KIF5B (P33176, Kinesin-1 heavy chain)
T1 sequence (P07949 713-1063 G810S limits assumed): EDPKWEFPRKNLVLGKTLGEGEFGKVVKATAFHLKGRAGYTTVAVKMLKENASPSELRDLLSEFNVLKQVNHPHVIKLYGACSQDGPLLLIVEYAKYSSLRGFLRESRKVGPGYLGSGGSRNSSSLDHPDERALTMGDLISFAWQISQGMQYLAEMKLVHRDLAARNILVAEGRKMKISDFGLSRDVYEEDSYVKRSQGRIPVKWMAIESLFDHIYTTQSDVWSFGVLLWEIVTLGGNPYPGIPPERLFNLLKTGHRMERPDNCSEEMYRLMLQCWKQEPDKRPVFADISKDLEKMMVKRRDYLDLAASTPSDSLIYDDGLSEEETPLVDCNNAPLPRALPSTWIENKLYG
Description: Compounds of formulas (I), (II), and (III) are screened for their ability to inhibit the intracellular autophosphorylation of RET at tyrosine 1062 as detected by In-Cell Western. HEK293 cells containing a doxycycline-inducible plasmid for inducible expression of KIF5B-RET WT and RET mutant forms V804M and G810S are seeded at 25,000 cells/well into black poly-D-lysine pre-coated 384-well plates (Corning, Catalog No. 356697). Expression of KIF5B-RET is induced with doxycycline at 1 μg/mL and cells are incubated at 37° C. overnight. Compounds are prepared in a threefold serial dilution in DMSO before further diluting 1:100 in media prior to the addition to the cells (0.1% final DMSO concentration). Compound treatment is performed for 1 hr at 37° C. followed by fixation of cells with 4% formaldehyde for 20 min at RT and cell permeabilisation with ice-cold MeOH for 10 min at RT. Cells are incubated with Intercept® blocking buffer (Li—COR, Catalogue No. 927-70010) for 1 hr at RT. Incubation with primary antibodies against human phospho-RET (Y1062) (R&D, Catalogue No. AF5009, 1/250 dilution) and human glyceraldehyde-3-phosphate dehydrogenase (clone 6C5, Merck, Catalog No. MAB374, 1/1000 dilution) are performed overnight at 4° C. Incubation with secondary antibodies IRDye® 800CW goat anti-rabbit IgG (Li—COR, Catalogue No. 926-32211, 1/1000 dilution) and IRDye® 680CW goat anti-mouse IgG (Li—COR, Catalogue No. 926-68070, 1/1000 dilution) are performed for 1 hr at RT. All antibody dilutions are done in Intercept® blocking buffer containing 0.05% Tween20. After washing cells with PBS-T (Cell Signaling technology, Catalogue No. 9809), the images are acquired on a Li—COR Odyssey LCx at 700 and 800 nm. Percent of DMSO control is calculated with 100% signal referring to control conditions containing no compound (0.4% DMSO only) and 0% signal represented by conditions containing control compound. The % of DMSO control values are fit to a 4 parameter logistic curve, and the determined EC50 value is defined as the estimated concentration of inhibitor at the inflexion point of the fitted curve.

[2] = molecular target: T2, wildtype RET kinase (N-terminal GST tagged recombinant human RET cytoplasmic domain, aa 658-end) (Homo sapiens, UniProt P07949); experiment: RET enzyme assay (HTRF KinEASE TK), wildtype; assay type: biochemical; settings: 1 mM ATP, 60 min incubation at 22° C.
T2 construct: human RET cytoplasmic domain (aa 658-end); GST (N); purchased Eurofins 14-570M
T2 sequence (P07949 658-1114 limits assumed): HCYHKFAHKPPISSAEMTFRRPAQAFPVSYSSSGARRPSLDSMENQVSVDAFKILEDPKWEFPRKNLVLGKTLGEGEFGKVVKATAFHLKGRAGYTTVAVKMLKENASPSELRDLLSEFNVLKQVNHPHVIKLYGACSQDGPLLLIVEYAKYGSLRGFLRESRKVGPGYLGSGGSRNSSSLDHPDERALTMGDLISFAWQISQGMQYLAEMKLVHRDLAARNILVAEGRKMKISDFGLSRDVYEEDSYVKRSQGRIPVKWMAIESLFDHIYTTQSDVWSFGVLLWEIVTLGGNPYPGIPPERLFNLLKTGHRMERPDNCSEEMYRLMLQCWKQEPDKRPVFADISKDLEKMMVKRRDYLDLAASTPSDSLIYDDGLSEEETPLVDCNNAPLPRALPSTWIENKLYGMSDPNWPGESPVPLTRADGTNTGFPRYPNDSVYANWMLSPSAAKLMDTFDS
Description: Assay A: RET Enzyme Assay
Compounds of formulas I, II, or III are screened for their ability to inhibit wildtype, V804M, and G810S mutant RET kinase using CisBio's HTRF® KinEASE™TK assay technology. N-terminal GST tagged recombinant human RET cytoplasmic domain (aa 658-end) from Eurofins ([…]; Catalog No. 14-570M) or N-terminal GST tagged recombinant human V804M mutant RET cytoplasmic domain (aa 658-end) from Millipore (1.25 nM enzyme; Catalog No. 14-760) or N-Terminal GST-tagged recombinant human G810S (aa-658-end) (1.25 nM Enzyme; produced in insect cells) is incubated with 62.5 nM TK-substrate biotin (CisBio, part of Catalog No. 62TK0PEC) and 1 mM ATP along with test compound (0.4% final DMSO in the assay) in a 1× Cisbio enzymatic buffer consisting of […], 5 mM MgCl2, 0.04% BSA and 0.05% Tween20 in a volume of 10 μL. Compounds are typically prepared in a threefold serial dilution in DMSO and added to the assay to give the appropriate final concentration. After a 40-60 min (40 min for V804M, 60 min for WT and G810S) incubation at 22° C., the reaction is quenched by adding quench solution (10 μL) containing 7.8 nM Streptavidine-XL665 and 0.5×TK-ab-Cryptate in HTRF detection buffer (all from CisBio, part of Cat. No. 62TK0PEC). After a 60-80 min incubation (60 minutes for WT, 80 minutes for V804M and G810S) at 22° C., the extent of reaction is determined using a PHERastar plate reader via HTRF detection at excitation/emission 337/665 nm. Percent of inhibition is calculated with 0% inhibition referring to control conditions containing no compound (0.4% DMSO only) and 100% inhibition represented by conditions containing no enzyme. The % inhibition values are fit to a 4 parameter logistic curve, and the determined IC50 value is defined as the estimated concentration of inhibitor at the inflexion point of the fitted curve.

Row | SMILES | EC50 [1] | IC50 [2]
1 | CC(C(=O)Nc1cc(C(C)(C)CC(F)(F)F)on1)c1ccc(-c2nn(C(C)C)c(N)c2C(N)=O)nc1 (single isomer, unassigned; isomer 2) [Example 68, 5-Amino-1-isopropyl-3-(5-(1-oxo-1-((5-(4,4,4-trifluoro-2-methylbutan-2-yl)isoxazol-3-yl)amino)propan-2-yl)pyridin-2-yl)-1H-pyrazole-4-carboxamide, Isomer 2] | < 100 nM | < 100 nM
2 | CC(C(=O)Nc1cc(C2CC(C)(C)C2)no1)c1ccc(-c2nn(C(C)C)c(N)c2C(N)=O)cc1 (single isomer, unassigned; isomer 1) [Example 98, 5-Amino-3-[4-[2-[[3-(3,3-dimethylcyclobutyl)isoxazol-5-yl]amino]-1-methyl-2-oxo-ethyl]phenyl]-1-isopropyl-pyrazole-4-carboxamide, Isomer 1] | < 100 nM | < 100 nM
3 | CCC(C)(C)c1cc(NC(=O)C(C)c2ccc(-c3nn(C(C)C)c(N)c3C(N)=O)nc2)no1 (single isomer, unassigned; isomer 2) [Example 66, 5-Amino-1-isopropyl-3-[5-(1-[[5-(2-methylbutan-2-yl)-1,2-oxazol-3-yl]carbamoyl]ethyl)pyridin-2-yl]pyrazole-4-carboxamide, Isomer 2] | < 100 nM | < 100 nM
4 | CC(C(=O)Nc1cc(C(C)(C)C(F)(F)F)on1)c1ccc(-c2nn(C(C)C)c(N)c2C(N)=O)cc1 (single isomer, unassigned; isomer 1) [Example 81, 5-Amino-1-isopropyl-3-[4-(1-[[5-(1,1,1-trifluoro-2-methylpropan-2-yl)-1,2-oxazol-3-yl]carbamoyl]ethyl)phenyl]pyrazole-4-carboxamide, Isomer 1] | < 100 nM | < 100 nM
5 | CC(C(=O)Nc1cc(C(C)(C)C(F)(F)F)on1)c1ccc(-c2nn(C(C)C)c(N)c2C(N)=O)nc1 (single isomer, unassigned; isomer 2) [Example 64, 5-Amino-1-isopropyl-3-[5-(1-[[5-(1,1,1-trifluoro-yl)-1,2-oxazol-3-2-methylpropan-2-yl]carbamoyl]ethyl)pyridin-2-yl]pyrazole-4-carboxamide, Isomer 2] | < 100 nM | < 100 nM
6 | CC(C(=O)Nc1cc(C(C)(C)C(C)(F)F)on1)c1ccc(-c2nn(C(C)C)c(N)c2C(N)=O)nc1 (single isomer, unassigned; isomer 2) [Example 70, 5-Amino-3-[5-(1-[[5-(3,3-difluoro-2-methylbutan-2-yl)-1,2-oxazol-3-yl]carbamoyl]ethyl)pyridin-2-yl]-1-isopropylpyrazole-4-carboxamide, Isomer 2] | < 100 nM | < 100 nM
7 | CC(C(=O)Nc1cc(CC(C)(C)C)no1)c1ccc(-c2nn(C(C)C)c(N)c2C(N)=O)cc1 (single isomer, unassigned; isomer 1) [Example 1, 5-Amino-3-[4-(1-[[3-(2,2-dimethylpropyl)-1,2-oxazol-5-yl]carbamoyl]ethyl)phenyl]-1-isopropylpyrazole-4-carboxamide, Isomer 1] | < 100 nM | < 100 nM
8 | CC(C(=O)Nc1cc(C(C)(C)C)sn1)c1ccc(-c2nn(C(C)C)c(N)c2C(N)=O)cc1 (single isomer, unassigned; isomer 2) [Example 80, 5-Amino-3-(4-[1-[(5-tert-butyl-1,2-thiazol-3-yl)carbamoyl]ethyl]phenyl)-1-isopropylpyrazole-4-carboxamide, isomer 2] | < 100 nM | < 100 nM
9 | CC(C(=O)Nc1cc(C2(C)CC2)no1)c1ccc(-c2nn(C(C)C)c(N)c2C(N)=O)cc1 (single isomer, unassigned; isomer 1) [Example 35, 5-Amino-1-isopropyl-3-[4-(1-[[3-(1-methylcyclopropyl)-1,2-oxazol-5-yl]carbamoyl]ethyl)phenyl]pyrazole-4-carboxamide, Isomer 1] | < 100 nM | < 100 nM
